Results on 16 compounds are retold here after US7232835B2, “3,6-Disubstituted azabicyclo derivatives as muscarinic receptor antagonists” (Ranbaxy Laboratories Limited, priority 2002, dated 2007).

The target in one experiment is T1, M2 muscarinic receptor (Rattus norvegicus, UniProt P10980).
T1 construct: Submandibular glands and heart were isolated and placed in ice cold homogenising buffer; from tissue; host or cells: rat heart membrane homogenate
T1 sequence (P10980 1-466): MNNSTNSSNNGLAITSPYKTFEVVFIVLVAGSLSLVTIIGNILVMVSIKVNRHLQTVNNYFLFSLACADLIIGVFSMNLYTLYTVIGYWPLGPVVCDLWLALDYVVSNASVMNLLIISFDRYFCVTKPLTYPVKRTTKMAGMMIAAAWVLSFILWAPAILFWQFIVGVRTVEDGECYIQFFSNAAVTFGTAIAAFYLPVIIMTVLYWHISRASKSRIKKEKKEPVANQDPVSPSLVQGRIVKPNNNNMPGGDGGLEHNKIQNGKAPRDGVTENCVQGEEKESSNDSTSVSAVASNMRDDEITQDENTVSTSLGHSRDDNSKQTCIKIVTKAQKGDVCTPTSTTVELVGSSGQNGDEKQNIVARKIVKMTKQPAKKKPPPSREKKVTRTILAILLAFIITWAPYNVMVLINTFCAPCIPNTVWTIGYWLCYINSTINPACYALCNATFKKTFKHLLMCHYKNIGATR
The experiment in a line: [3H]-N-methylscopolamine radioligand binding assay, rat heart membranes.

For the next experiment, the target named is T2, M3 muscarinic receptor (Rattus norvegicus, UniProt P08483).
T2 construct: Submandibular glands and heart were isolated and placed in ice cold homogenising buffer; from tissue; host or cells: rat submandibular gland membrane homogenate
The experiment in a line: [3H]-N-methylscopolamine radioligand binding assay, rat submandibular gland membranes. More on the design: Receptor Binding Assay Selectivity: reference not given here.

In the next experiment the test system is isolated rat bladder. The experiment in a line: tissue or blood. The format is cell-based. As to conditions: rat bladder strips, antagonism of carbachol contraction.
[1] abbreviates: Table II, rat heart, [3H]NMS, read-out: Receptor Binding Assay Ki (nM) M2.
Where [2] appears, read: Table III, rat heart, [3H]NMS, read-out: M2 Ki (nm).
[3] abbreviates: Table III, rat heart, [3H]NMS, read-out: M2 pKi (converted).
[4] abbreviates: Table II, rat submandibular gland, [3H]NMS, read-out: Receptor Binding Assay Ki (nM) M 3.
The mark [5] stands for this setting: Table III, rat submandibular gland, [3H]NMS, read-out: M3 Ki (nm).
[6] abbreviates: Table III, rat submandibular gland, [3H]NMS, read-out: M3 Pki (converted).
Setting [7] is: Table II, read-out: Functional Assay KB.
[8] abbreviates: Table III, read-out: Rat Bladder pKB (converted).
The mark [9] stands for this setting: Receptor Binding Assay Ki (nM) M 3.

Each structure is given as a SMILES string. Like-named read-outs stand apart in the source and are kept apart here.

T2 sequence (P08483 whole entry): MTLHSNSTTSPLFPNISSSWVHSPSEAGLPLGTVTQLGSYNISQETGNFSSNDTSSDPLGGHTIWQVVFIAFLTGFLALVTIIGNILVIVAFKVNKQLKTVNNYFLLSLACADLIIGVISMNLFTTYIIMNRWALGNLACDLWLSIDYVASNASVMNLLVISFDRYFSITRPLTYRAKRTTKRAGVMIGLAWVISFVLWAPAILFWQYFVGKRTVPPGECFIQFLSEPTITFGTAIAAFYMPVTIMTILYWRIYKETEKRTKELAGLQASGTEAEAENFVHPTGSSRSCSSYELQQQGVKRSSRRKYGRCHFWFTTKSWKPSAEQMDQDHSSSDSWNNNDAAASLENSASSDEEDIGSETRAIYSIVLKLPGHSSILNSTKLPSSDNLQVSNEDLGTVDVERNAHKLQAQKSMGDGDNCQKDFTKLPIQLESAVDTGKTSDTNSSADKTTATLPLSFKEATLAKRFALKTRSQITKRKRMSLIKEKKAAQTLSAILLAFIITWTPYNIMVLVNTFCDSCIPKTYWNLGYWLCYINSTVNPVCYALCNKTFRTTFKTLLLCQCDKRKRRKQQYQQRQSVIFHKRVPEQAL

In the case of `CC(C)=CCCN1CC2C(C1)C2NC(=O)C(O)(c1ccccc1)C1CCCC1` (stereo not drawn) [Compound No. 65, (1α,5α,6α)-6-N-(3-azabicyclo[3.1.0]hexyl-3-(4-methyl-3-pentenyl))-2-cyclopentyl-2-hydroxy-2-phenyl acetamide], the Ki is 1370 nM at M2 muscarinic receptor (setting [1]); 1370 nM on M2 muscarinic receptor (setting [2]); 1350 nM at M2 muscarinic receptor (setting [3]); 33 nM at M3 muscarinic receptor (setting [4]); 33 nM on M3 muscarinic receptor (setting [5]); 29.5 nM at M3 muscarinic receptor (setting [6]). For the same compound, at M3 muscarinic receptor (Table II, ratio M2 Ki / M3 Ki), the “Receptor Binding Assay Selectivity” value is 41.52. Further, the Kb is 4 nM in the experiment on isolated rat bladder (setting [7]) and 3.98 nM in the experiment with isolated rat bladder (setting [8]).
For `O=C(NC1C2CN(CCc3ccc4c(c3)OCO4)CC21)C(O)(c1ccccc1)C1CCCC1` (stereo not drawn) [Compound No. 66], the Ki on M2 muscarinic receptor (setting [1]) was 237 nM; at M2 muscarinic receptor (setting [2]), 182 nM; on M2 muscarinic receptor (setting [3]) it was 115 nM; on M3 muscarinic receptor (M3 Ki (nm)) it was 18.4 nM; at M3 muscarinic receptor (M3 Pki), 15.5 nM; at M3 muscarinic receptor (setting [9]) it was 18.4 nM. In addition, the “Receptor Binding Assay Selectivity” value at M3 muscarinic receptor is 12.88. Also, the values for the Kb with isolated rat bladder (setting [7]) and with isolated rat bladder (setting [8]) were 5 nM and 3.24 nM, respectively.
For `O=C(NC1C2CN(Cc3c(F)cccc3F)CC21)C(O)(c1ccccc1)C1CCCCC1` (stereo not drawn) [Compound No. 25, (1α,5α,6α)-6-N-(3-azabicyclo[3.1.0]hexyl-3-(2,6-difluorobenzyl))-2-cyclohexyl-2-hydroxy-2-phenyl acetamide], the Ki on M2 muscarinic receptor (setting [2]) is > 1000 nM; at M3 muscarinic receptor (setting [5]), 1700 nM. In the experiment with isolated rat bladder (setting [8]), the Kb was 288 nM.
For the compound `O=C(N[C@H]1[C@@H]2CN(Cc3ccccc3)C[C@@H]21)C(O)(c1ccccc1)C1CCCC1` (stereo partly drawn) [Compound No. 64], the Ki on M2 muscarinic receptor (setting [2]) was 3000 nM; at M2 muscarinic receptor (setting [3]), 2510 nM; on M3 muscarinic receptor, 68 nM. The Kb with isolated rat bladder (setting [8]) was 27.5 nM.
As for `O=C(N[C@H]1[C@@H]2CN(Cc3ccccc3)C[C@@H]21)C(O)(c1ccc(Oc2ccccc2)cc1)C1CCCCC1` (stereo partly drawn) [Compound No. 52, (1α,5α,6α)-6-N-(3-azabicyclo[3.1.0]hexyl-3-benzyl)-2-cyclohexyl-2-hydroxy-2-(4-phenoxyphenyl)acetamide], the Ki on M2 muscarinic receptor (setting [2]) is > 1000 nM; on M3 muscarinic receptor (setting [5]), 370 nM. In addition, in the experiment on isolated rat bladder (setting [8]), the Kb is 3090 nM.
Consider `O=C(N[C@H]1[C@@H]2CN(Cc3ccccc3)C[C@@H]21)C(O)(c1ccccc1)C1CCCCC1` (stereo partly drawn) [Compound No. 22, (1α,5α,6α)-6-N-(3-azabicyclo[3.1.0]hexyl-3-benzyl)-2-cyclohexyl-2-hydroxy-2-phenyl acetamide], for which the Ki on M2 muscarinic receptor (M2 Ki (nm)) was 2260 nM; at M2 muscarinic receptor (Receptor Binding Assay Ki (nM) M2) it was 2260 nM; on M3 muscarinic receptor (setting [4]) it was 94 nM; at M3 muscarinic receptor (setting [5]), 94 nM. The “Receptor Binding Assay Selectivity” value on M3 muscarinic receptor amounted to 24.07. Also, the Kb with isolated rat bladder (setting [7]) is 27.5 nM; in the experiment on isolated rat bladder (setting [8]), 26.9 nM.
Consider `O=C(NC1C2CN(CCc3ccccc3)CC21)C(O)(c1ccccc1)C1CCCC1` (stereo not drawn) [Compound No. 67, (1α,5α,6α)-6-N-(3-azabicyclo[3.1.0]hexyl-3-(2-phenylethyl))-2-cyclopentyl-2-hydroxy-2-phenyl acetamide], for which the Ki on M2 muscarinic receptor (setting [2]) is 1420 nM; on M3 muscarinic receptor (setting [6]) it was 38.9 nM. For the same compound, the Kb with isolated rat bladder (setting [8]) was 38 nM.
Regarding `O=C(N[C@H]1[C@@H]2CN(C3CC3)C[C@@H]21)C(O)(c1ccccc1)C1CCCCC1` (stereo partly drawn) [Compound No. 38, (1α,5α,6α)-6-N-(3-azabicyclo[3.1.0]hexyl-3-cyclopropyl)-2-cyclohexyl-2-hydroxy-2-phenyl acetamide], the Ki at M2 muscarinic receptor (setting [2]) was > 1000 nM; at M3 muscarinic receptor (setting [5]), 1560 nM. The Kb in the experiment with isolated rat bladder (setting [8]) was 288 nM.
As to `O=C(N[C@H]1[C@@H]2CN(Cc3ccc4c(c3)OCO4)C[C@@H]21)C(O)(c1ccccc1)C1CCCCC1` (stereo partly drawn) [Compound No. 42, (1α,5α,6α)-6-N-(3-azabicyclo[3.1.0]hexyl-3-(3,4-methylenedioxybenzyl))-2-cyclohexyl-2-hydroxy-2-phenyl acetamide], the results for the Ki on M2 muscarinic receptor (setting [2]), on M3 muscarinic receptor (setting [5]) and at M3 muscarinic receptor (setting [6]) were 2200 nM, 55 nM and 56.2 nM, respectively. For the same compound, in the experiment with isolated rat bladder (setting [8]), the Kb was 75.9 nM.
Turning to `C#CCN1CC2C(C1)C2NC(=O)C(O)(c1ccccc1)C1CCCCC1` (stereo not drawn) [Compound No. 35, (1α,5α,6α)-6-N-(3-azabicyclo[3.1.0]hexyl-3-(2-propargyl))-2-cyclohexyl-2-hydroxy-2-phenyl acetamide], the values for the Ki at M2 muscarinic receptor (setting [2]), at M2 muscarinic receptor (setting [3]) and on M3 muscarinic receptor (setting [5]) were 1180 nM, > 1000 nM and 429 nM, respectively. In the experiment on isolated rat bladder (setting [8]), the Kb is 24.5 nM.
`Cc1ccc(S(=O)(=O)NC(=O)N2C[C@@H]3[C@H](C2)[C@H]3NC(=O)C(O)(c2ccccc2)C2CCCCC2)cc1` (stereo partly drawn) [Compound No. 49, (1α,5α,6α)-6-N-(3-azabicyclo[3.1.0]hexyl-3-(4-methylphenyl-1-sulphonamide)urea)-2-cyclohexyl-2-hydroxy-2-phenyl acetamide]: the values for the Ki at M2 muscarinic receptor (setting [2]) and on M3 muscarinic receptor (setting [5]) were > 1000 nM and 1000 nM, respectively. Also, the Kb with isolated rat bladder (setting [8]) was 631 nM.
Consider `O=C(NC1C2CN(Cc3cc(F)cc(F)c3)CC21)C(O)(c1ccccc1)C1CCCCC1` (stereo not drawn) [Compound No. 23, (1α,5α,6α)-6-N-(3-azabicyclo[3.1.0]hexyl-3-(3,5-difluorobenzyl))-2-cyclohexyl-2-hydroxy-2-phenyl acetamide], for which the results for the Ki on M2 muscarinic receptor (setting [2]) and on M3 muscarinic receptor (setting [5]) were > 1000 nM and 530 nM, respectively. Further, the Kb in the experiment on isolated rat bladder (setting [8]) was 2290 nM.
With `CC(C)=CCCN1C[C@@H]2[C@H](C1)[C@H]2NC(=O)[C@](O)(c1ccccc1)C1CCCC1` [Compound No. 81, (2R)-(1α,5α,6α)-6-N-(3-azabicyclo[3.1.0]hexyl-3-(4-methyl-3-pentenyl))-2-cyclopentyl-2-hydroxy-2-phenyl acetamide], the Ki at M2 muscarinic receptor (setting [1]) was 564 nM; at M2 muscarinic receptor (setting [2]), 564 nM; at M2 muscarinic receptor (setting [3]) it was 525 nM; on M3 muscarinic receptor (setting [4]) it was 12.4 nM; at M3 muscarinic receptor (setting [5]) it was 12.4 nM; on M3 muscarinic receptor (setting [6]) it was 11.5 nM. Moreover, the “Receptor Binding Assay Selectivity” value on M3 muscarinic receptor (Table II, ratio M2 Ki / M3 Ki) worked out at 45.48. Moreover, the results for the Kb in the experiment with isolated rat bladder (setting [7]) and with isolated rat bladder (setting [8]) were 7.95 nM and 11.2 nM, respectively.
In the case of `O=C(N[C@H]1[C@@H]2CN(CCc3ccc4c(c3)OCO4)C[C@@H]21)[C@](O)(c1ccccc1)C1CCCC1` [Compound No. 82, (2R)-(1α,5α,6α)-6-N-(3-azabicyclo[3.1.0]hexyl-3-(3,4-methylenedioxyphenyl)ethyl)-2-cyclopentyl-2-hydroxy-2-phenyl acetamide], the Ki is 646 nM on M2 muscarinic receptor (setting [1]), 646 nM on M2 muscarinic receptor (setting [2]), 11.7 nM at M3 muscarinic receptor (M3 Ki (nm)) and 11.7 nM on M3 muscarinic receptor (setting [9]). Further, the “Receptor Binding Assay Selectivity” value at M3 muscarinic receptor stood at 5. Further, the Kb in the experiment on isolated rat bladder (setting [7]) was 9.12 nM; in the experiment on isolated rat bladder (setting [8]), 0.759 nM.
Regarding `CC(C)=CCCN1C[C@@H]2[C@H](C1)[C@H]2NC(=O)C(O)(c1ccccc1)C1CCCCC1` (stereo partly drawn) [Compound No. 41, (1α,5α,6α)-6-N-(3-azabicyclo[3.1.0]hexyl-3-(4-methyl-3-pentenyl))-2-cyclohexyl-2-hydroxy-2-phenyl acetamide], the Ki amounted to 2940 nM on M2 muscarinic receptor (setting [1]), 2940 nM at M2 muscarinic receptor (setting [2]), 47 nM on M3 muscarinic receptor (setting [4]) and 47 nM at M3 muscarinic receptor (setting [5]). Also, the “Receptor Binding Assay Selectivity” value at M3 muscarinic receptor (Table II, ratio M2 Ki / M3 Ki) is reported as 62.64. Moreover, the figures for the Kb in the experiment on isolated rat bladder (setting [7]) and in the experiment with isolated rat bladder (setting [8]) were 32.4 nM and 20.4 nM, respectively.
For `COc1ccc(C(O)(C(=O)NC2C3CN(CCC=C(C)C)CC32)C2CCCCC2)cc1` (stereo not drawn) [Compound No. 57, (1α,5α,6α)-6-N-(3-azabicyclo[3.1.0]hexyl-3-(4-methyl-3-pentenyl))-2-cyclohexyl-2-hydroxy-2-(4-methoxyphenyl)acetamide], the results for the Ki at M2 muscarinic receptor (setting [2]) and at M3 muscarinic receptor (setting [5]) were > 1000 nM and 240 nM, respectively. Also, in the experiment on isolated rat bladder (setting [8]), the Kb is 1860 nM.
